According to patent US8486920B2, “Composition and method for controlling plant diseases” (priority 2008, dated 2013):
Like-named read-outs stand apart in the source and are kept apart here.

Test system: Pythium ultimum, pathogen of cucumber damping-off
Assay type: in vivo
Conditions: cucumber (Sagamihanjiro) seed treatment, 18° C., 13 days
Excerpt: An acetone solution of ethaboxam and an acetone solution of tolclofos-methyl were mixed to prepare mixed liquids containing ethaboxam and tolclofos-methyl in predetermined concentration. These mixed liquids were adhered on the surface of cucumber (Sagamihanjiro) seeds and allowed to stand still overnight. A plastic pot was filled with sandy soil and the seeds were disseminated on it. Then the seeds were covered with sandy soil which had been mixed with a bran medium on which Pythium ultimum, pathogen of cucumber damping-off, had been allowed to grow. They were irrigated and allowed to grow at 18° C. under humidity for 13 days, and thereafter control effect was checked.
As a comparison, acetone solutions containing ethaboxam in the predetermined concentration and acetone solutions containing tolclofos-methyl in the predetermined concentration were prepared and subjected to similar tests.
The incidence of disease was calculated by Equation 1 and the control value was calculated by Equation 2 based on the incidence of disease.
A: Incidence of disease of plant in untreated area
B: Incidence of disease of plant in treated area
E=X+Y−(X×Y)/100 “Equation 2”

| Structure (SMILES) | Actual control value (ethaboxam alone 5 g ai/100 kg-seed) | Actual control value (ethaboxam alone 10 g ai/100 kg-seed) | Actual control value (tolclofos-methyl alone 100 g ai/100 kg-seed) | Actual control value (tolclofos-methyl alone 200 g ai/100 kg-seed) |
| --- | --- | --- | --- | --- |
| CCNc1nc(CC)c(C(=O)NC(C#N)c2cccs2)s1 (stereo not shown) [Ethaboxam] | 25% | 58% | – | – |
| COP(=S)(OC)Oc1c(Cl)cc(C)cc1Cl [tolclofos-methyl] | – | – | 0.0% | 0.0% |
